From patent US20240270821A1, “GIP/GLP1/GCG TRI-RECEPTOR AGONISTS AND USES THEREOF” (priority 2023, published 2024) come the findings set out here.

Where two headings read alike, the source gives them in different places. Starred links: 1 amine or outer side, 2 acyl side, 3 side chain; linkers in the order of their positions; H or OH if unused. Non-standard residues stand in square brackets, D forms with d. Residues, ends and D or L forms follow the SMILES beside them. Groups on a side chain read outwards from the residue. No end group written: not given here. *: point of attachment. C20 diacid = O=C(O)CCCCCCCCCCCCCCCCCCC(=O)*; C18 diacid = O=C(O)CCCCCCCCCCCCCCCCC(=O)*; αMePhe(2-F) = C[C@](N)(Cc1ccccc1F)C(=O)O; γGlu = O=C(O)[C@H](CCC(=O)[*:2])N[*:1]; αMe4Pal = C[C@](N)(Cc1ccncc1)C(=O)O; αMeY = C[C@](N)(Cc1ccc(O)cc1)C(=O)O; 4Pal = N[C@@H](Cc1ccncc1)C(=O)O; αMeL = CC(C)C[C@](C)(N)C(=O)O; Orn = NCCC[C@H](N)C(=O)O; AEEA = NCCOCCOCC(=O)O; Aib = CC(C)(N)C(=O)O

Type in all cases: cell-based
Assay [1] concerns the target T1, hGIPR (Homo sapiens, UniProt P48546).
T1 sequence (P48546 22-466): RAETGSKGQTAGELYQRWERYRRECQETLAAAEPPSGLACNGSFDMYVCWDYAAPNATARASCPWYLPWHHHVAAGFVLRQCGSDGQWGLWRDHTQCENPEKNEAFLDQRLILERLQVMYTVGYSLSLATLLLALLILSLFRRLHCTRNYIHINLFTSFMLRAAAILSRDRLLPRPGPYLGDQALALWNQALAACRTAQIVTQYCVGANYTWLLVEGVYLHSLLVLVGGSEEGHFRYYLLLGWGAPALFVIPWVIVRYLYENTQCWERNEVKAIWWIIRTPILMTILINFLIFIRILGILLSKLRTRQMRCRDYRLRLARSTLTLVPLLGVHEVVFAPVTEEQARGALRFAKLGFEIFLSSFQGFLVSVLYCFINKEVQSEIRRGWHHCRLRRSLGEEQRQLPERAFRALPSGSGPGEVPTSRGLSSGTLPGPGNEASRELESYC
The assay can be described thus: Functional cAMP activity in the presence of 1% HSA. The conditions noted are these: read-out: cAMP Rel EC50, hGIPR.

The target in assay [2] is T2, hGLP-1R (Homo sapiens, UniProt P43220). The assay can be described thus: Functional cAMP activity in the presence of 1% HSA. The conditions noted are these: read-out: cAMP Rel EC50, hGLP-1R.
T2 sequence (P43220 24-463): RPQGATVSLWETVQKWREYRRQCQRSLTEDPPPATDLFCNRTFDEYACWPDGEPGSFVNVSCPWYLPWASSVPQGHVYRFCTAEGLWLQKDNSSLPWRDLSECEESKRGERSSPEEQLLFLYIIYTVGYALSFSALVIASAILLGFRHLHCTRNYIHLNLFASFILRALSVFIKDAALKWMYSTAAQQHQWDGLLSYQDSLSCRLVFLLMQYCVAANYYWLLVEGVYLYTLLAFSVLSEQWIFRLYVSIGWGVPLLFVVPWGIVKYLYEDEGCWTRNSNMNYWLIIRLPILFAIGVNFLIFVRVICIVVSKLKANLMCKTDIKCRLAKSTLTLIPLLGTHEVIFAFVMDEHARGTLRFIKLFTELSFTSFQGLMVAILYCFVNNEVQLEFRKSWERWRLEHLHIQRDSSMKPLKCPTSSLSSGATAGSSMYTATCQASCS
For a further assay, the target named is human GcgR (Homo sapiens, UniProt P47871). Description: Functional cAMP activity in the presence of 1% HSA. Particulars: read-out: cAMP Rel EC50, hGcgR.
Sequence of human GcgR (P47871 26-477): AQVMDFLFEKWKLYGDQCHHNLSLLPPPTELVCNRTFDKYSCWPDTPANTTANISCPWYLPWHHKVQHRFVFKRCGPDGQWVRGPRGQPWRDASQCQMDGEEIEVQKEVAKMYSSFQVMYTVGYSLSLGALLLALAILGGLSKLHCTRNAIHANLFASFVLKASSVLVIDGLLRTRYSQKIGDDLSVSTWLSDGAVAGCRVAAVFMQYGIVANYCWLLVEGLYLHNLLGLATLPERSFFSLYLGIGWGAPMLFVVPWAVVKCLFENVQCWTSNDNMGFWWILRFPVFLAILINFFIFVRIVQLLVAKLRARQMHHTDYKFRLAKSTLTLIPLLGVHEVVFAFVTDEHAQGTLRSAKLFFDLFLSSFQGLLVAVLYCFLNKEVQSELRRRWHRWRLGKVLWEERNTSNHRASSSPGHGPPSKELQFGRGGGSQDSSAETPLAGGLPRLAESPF
The target in assay [3] is T1, hGIPR. The assay can be described thus: Functional cAMP activation in the presence of 0.1% casein (no HSA). The conditions noted are these: read-out: Relative cAMP EC50, hGIPR.
For assay [4], the target named is T2, hGLP-1R. The description is as above. Particulars: read-out: Relative cAMP EC50, hGLP-1R.
A further assay has as its target hGcgR (Homo sapiens, UniProt P47871). The description is as above. Particulars: read-out: Relative cAMP EC50, hGcgR.
Setting [5] is: in the presence of 0.1% casein (no HSA), geometric mean.
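Wherever Relative cAMP EC50, hGIPR is given: intracellular cAMP rise after 30 min at 37 °C read by HTRF against a standard curve, scaled between buffer alone (0%) and top control ligand concentration (100%), four-parameter fit.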
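Wherever Relative cAMP EC50, hGLP-1R is given: intracellular cAMP rise after 30 min at 37 °C read by HTRF, normalized between buffer only (0%) and maximal control ligand (100%), four-parameter variable-slope fit.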
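Wherever Relative cAMP EC50, hGcgR is given: intracellular cAMP rise after 30 min at 37 °C, read by HTRF against a cAMP standard curve, scaled from buffer only (0%) to maximal control ligand response (100%).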

Sequence of hGcgR (P47871 26-477): as above

In the case of “H-Y[Aib]QGTFTSD[4Pal]SQ[αMeL]LDKK([AEEA-γGlu-C18 diacid])AQ[αMe4Pal]AFIEYLIEGGPSSGAPPPSGS-NH2 [Example 826]”, the EC50 at hGIPR [1] worked out at 81.6 nM; at hGLP-1R [2], 202 nM; at human GcgR, 441 nM; on hGIPR [3] (setting [5]), 0.581 nM; on hGLP-1R [4] (setting [5]) it was 2.75 nM; at hGcgR (setting [5]) it was 5.59 nM.
Take “H-Y[Aib]QGTFTSD[4Pal]SQ[αMeL]LD[Orn]K([γGlu-γGlu-C18 diacid])AQ[αMe4Pal]AFI[dE][αMeY]LIEGGPSSGAPPPSGSEE-NH2 [Example 1044]”: the EC50 on hGIPR [1] was found to be 88.7 nM; at hGLP-1R [2] it was 1110 nM; on human GcgR it was 2410 nM; on hGIPR [3] (setting [5]) it was 0.896 nM; at hGLP-1R [4] (setting [5]), 10.7 nM; on hGcgR (setting [5]) it was 18.8 nM.
Consider `CC[C@H](C)[C@H](NC(=O)[C@H](Cc1ccccc1)NC(=O)[C@H](CCCN)NC(=O)C(C)(C)NC(=O)[C@H](CCC(N)=O)NC(=O)[C@H](C)NC(=O)[C@H](CCCCNC(=O)CC[C@H](NC(=O)CC[C@H](NC(=O)CCCCCCCCCCCCCCCCC(=O)O)C(=O)O)C(=O)O)NC(=O)[C@H](CCCN)NC(=O)[C@H](CC(=O)O)NC(=O)[C@H](CC(C)C)NC(=O)[C@](C)(CC(C)C)NC(=O)[C@@H](NC(=O)[C@H](CO)NC(=O)[C@H](Cc1ccncc1)NC(=O)[C@H](CC(=O)O)NC(=O)[C@H](CO)NC(=O)[C@@H](NC(=O)[C@](C)(Cc1ccccc1F)NC(=O)[C@@H](NC(=O)CNC(=O)[C@H](CCC(N)=O)NC(=O)C(C)(C)NC(=O)[C@@H](N)Cc1ccc(O)cc1)[C@@H](C)O)[C@@H](C)O)[C@@H](C)CC)C(=O)N[C@H](CCC(=O)O)C(=O)N[C@@](C)(Cc1ccc(O)cc1)C(=O)N[C@@H](CC(C)C)C(=O)N[C@@H](CC(C)C)C(=O)N[C@@H](CCC(=O)O)C(=O)NCC(=O)NCC(=O)N1CCC[C@H]1C(=O)N[C@@H](CO)C(=O)N[C@@H](CO)C(=O)NCC(=O)N[C@@H](CCC(=O)O)C(=O)N1CCC[C@H]1C(=O)N1CCC[C@H]1C(=O)N1CCC[C@H]1C(=O)N[C@@H](CCC(=O)O)C(N)=O` [Example 372] (H-Y[Aib]QGT[αMePhe(2-F)]TSD[4Pal]SI[αMeL]LD[Orn]K([γGlu-γGlu-C18 diacid])AQ[Aib][Orn]FI[dE][αMeY]LLEGGPSSGEPPPE-NH2), for which the EC50 was 2.63 nM at hGIPR [1]; 53.1 nM at hGLP-1R [2]; 468 nM at human GcgR; 0.0161 nM at hGIPR [3] (setting [5]); 0.333 nM on hGLP-1R [4] (setting [5]); 7.54 nM at hGcgR (setting [5]).
As to “H-Y[Aib]QGTFTSDFS[Orn][αMeL]LDKK([AEEA-γGlu-C20 diacid])AQ[Aib]AFIEYLLAGGPSSGEPPPEGE-NH2 [Example 102]”, the concentration giving a half-maximal response (EC50) was determined as 159 nM at hGIPR [1]; 1060 nM on hGLP-1R [2]; 2710 nM at human GcgR; 0.587 nM at hGIPR [3] (setting [5]); 3.35 nM at hGLP-1R [4] (setting [5]); 9.75 nM on hGcgR (setting [5]).
Turning to `CC[C@H](C)[C@H](NC(=O)[C@H](Cc1ccccc1)NC(=O)[C@H](C)NC(=O)C(C)(C)NC(=O)[C@H](CCC(N)=O)NC(=O)[C@H](C)NC(=O)[C@H](CCCCNC(=O)COCCOCCNC(=O)CC[C@H](NC(=O)CCCCCCCCCCCCCCCCC(=O)O)C(=O)O)NC(=O)[C@H](CCCCN)NC(=O)[C@H](CC(=O)O)NC(=O)[C@H](CC(C)C)NC(=O)[C@H](CC(C)C)NC(=O)[C@@H](NC(=O)[C@H](CO)NC(=O)[C@H](Cc1ccc(O)cc1)NC(=O)[C@H](CC(=O)O)NC(=O)[C@H](CO)NC(=O)[C@@H](NC(=O)[C@](C)(Cc1ccccc1F)NC(=O)[C@@H](NC(=O)CNC(=O)[C@H](CCC(N)=O)NC(=O)C(C)(C)NC(=O)[C@@H](N)Cc1ccc(O)cc1)[C@@H](C)O)[C@@H](C)O)[C@@H](C)CC)C(=O)N[C@@H](CCC(=O)O)C(=O)N[C@@H](Cc1ccc(O)cc1)C(=O)N[C@@H](CC(C)C)C(=O)N[C@@H](CCC(=O)O)C(=O)N[C@@H](CCC(=O)O)C(=O)NCC(=O)NCC(=O)N1CCC[C@H]1C(=O)N[C@@H](CO)C(=O)N[C@@H](CO)C(=O)NCC(=O)N[C@@H](CCC(=O)O)C(=O)N1CCC[C@H]1C(=O)N1CCC[C@H]1C(=O)N1CCC[C@H]1C(=O)N[C@@H](CO)C(N)=O` [Example 407], the concentration for a half-maximal effect (EC50) at hGIPR [1] was 11.7 nM; at hGLP-1R [2], 37.2 nM; at human GcgR it was 485 nM; at hGIPR [3], 0.0362 nM; at hGLP-1R [4], 0.259 nM; at hGcgR it was 1.49 nM.
In the case of “H-Y[Aib]QGTFTSD[4Pal]SQ[αMeL]LD[Orn]K([dE-γGlu-C18 diacid])AQ[αMe4Pal]AFIQ[αMeY]LIA[Aib]GPSSGEPPPSGGGE-NH2 [Example 1130]”, the EC50 at hGIPR [1] was determined as 3.73 nM; at hGLP-1R [2] it was 44.5 nM; at human GcgR, 1240 nM; at hGIPR [3] (setting [5]), 0.0441 nM; at hGLP-1R [4] (setting [5]) it was 0.641 nM; on hGcgR (setting [5]), 13.3 nM.
With “Y[Aib]QGTFTSD[4Pal]SQ[αMeL]LDKK([AEEA-γGlu-C18 diacid])AQ[Aib]AFIE[αMeY]LIEGGPSSGAPPPSGS-NH2 [Example 838]”, the 50% effective concentration (EC50) at hGIPR [1] worked out at 23.2 nM; at hGLP-1R [2], 72.2 nM; on human GcgR it was 3070 nM; at hGIPR [3] (setting [5]) it was 0.225 nM; at hGLP-1R [4] (setting [5]), 0.379 nM; at hGcgR (setting [5]), 20.7 nM.
